Assay results reported in ChEMBL document CHEMBL1806489, “Synthesis and biological evaluation of novel F-18 labeled pyrazolo[1,5-a]pyrimidine derivatives: potential PET imaging agents for tumor detection” (Bioorg Med Chem Lett, 2011).

Legend:
[1] = test system: Mus musculus; assay: Biodistribution in mouse S180 cells xenografted Kunming mouse left forelimb of tumor at 3.7 MBq, iv after 30 mins by PET imaging analysis; type: ADME, organism-based, Neoplasm, CCRF S-180; settings: in vivo, 0.5 h
[2] = test system: Mus musculus; assay: Biodistribution in mouse S180 cells xenografted Kunming mouse right forelimb of tumor at 3.7 MBq, iv after 30 mins by PET imaging analysis; type: ADME, organism-based, Neoplasm, CCRF S-180; settings: in vivo, 0.5 h
[3] = test system: CCRF S-180; assay: Cellular uptake in mouse S180 cells after 60 mins; type: ADME, cell-based; settings: ccrf s-180, 1 h
[4] = test system: Nucleic Acid; assay: Ratio of drug level in tumor to brain in mouse S180 cells xenografted Kunming mouse at 370 kBq/0.1 mL, iv after 60 mins by gamma counting; type: ADME, organism-based, CCRF S-180; settings: in vivo, 1 h
[5] = test system: Nucleic Acid; assay: Ratio of drug level in tumor to muscle in mouse S180 cells xenografted Kunming mouse at 370 kBq/0.1 mL, iv after 120 mins by gamma counting; type: ADME, organism-based, CCRF S-180; settings: in vivo, 2 h
[6] = test system: Nucleic Acid; assay: Ratio of drug level in tumor to brain in mouse S180 cells xenografted Kunming mouse at 370 kBq/0.1 mL, iv after 5 mins by gamma counting; type: ADME, organism-based, CCRF S-180; settings: in vivo
[7] = test system: Mus musculus; assay: Biodistribution in mouse S180 cells xenografted Kunming mouse tumor at 370 kBq/0.1 mL, iv after 60 mins by gamma counting; type: ADME, organism-based, Neoplasm, CCRF S-180; settings: in vivo, 1 h
[8] = test system: Nucleic Acid; assay: Ratio of drug level in tumor to blood in mouse S180 cells xenografted Kunming mouse at 370 kBq/0.1 mL, iv after 5 mins by gamma counting; type: ADME, organism-based, CCRF S-180; settings: tumour
[9] = test system: Kidney; assay: Biodistribution in mouse S180 cells xenografted Kunming mouse kidney at 370 kBq/0.1 mL, iv after 5 mins by gamma counting; type: ADME, organism-based, CCRF S-180; settings: in vivo
[10] = test system: CCRF S-180; assay: Cellular uptake in mouse S180 cells relative to [18F]FDG; type: ADME, cell-based
[11] = test system: Blood; assay: Biodistribution in mouse S180 cells xenografted Kunming mouse blood at 370 kBq/0.1 mL, iv after 5 mins by gamma counting; type: ADME, organism-based, CCRF S-180; settings: in vivo
[12] = test system: Nucleic Acid; assay: Ratio of drug level in tumor to muscle in mouse S180 cells xenografted Kunming mouse at 370 kBq/0.1 mL, iv after 60 mins by gamma counting; type: ADME, organism-based, CCRF S-180; settings: in vivo, 1 h
[13] = test system: Mus musculus; assay: Biodistribution in mouse S180 cells xenografted Kunming mouse excretory organ at 3.7 MBq, iv after 30 mins by PET imaging analysis; type: ADME, organism-based, CCRF S-180; settings: in vivo, 0.5 h
[14] = test system: Brain; assay: Biodistribution in mouse S180 cells xenografted Kunming mouse brain at 370 kBq/0.1 mL, iv after 15 mins by gamma counting; type: ADME, organism-based, CCRF S-180; settings: in vivo, 0.25 h
[15] = test system: Blood; assay: Biodistribution in mouse S180 cells xenografted Kunming mouse blood at 370 kBq/0.1 mL, iv after 60 mins by gamma counting; type: ADME, organism-based, CCRF S-180; settings: in vivo, 1 h
[16] = test system: CCRF S-180; assay: Cellular uptake in mouse S180 cells after 30 mins; type: ADME, cell-based; settings: ccrf s-180, 0.5 h
[17] = test system: Mus musculus; assay: Biodistribution in mouse S180 cells xenografted Kunming mouse tumor at 370 kBq/0.1 mL, iv after 15 mins by gamma counting; type: ADME, organism-based, Neoplasm, CCRF S-180; settings: in vivo, 0.25 h
[18] = test system: Spleen; assay: Biodistribution in mouse S180 cells xenografted Kunming mouse spleen at 370 kBq/0.1 mL, iv after 5 mins by gamma counting; type: ADME, organism-based, CCRF S-180; settings: in vivo
[19] = test system: Muscle tissue; assay: Biodistribution in mouse S180 cells xenografted Kunming mouse muscle at 370 kBq/0.1 mL, iv after 60 mins by gamma counting; type: ADME, organism-based, CCRF S-180; settings: in vivo, 1 h
[20] = test system: Heart; assay: Biodistribution in mouse S180 cells xenografted Kunming mouse heart at 370 kBq/0.1 mL, iv after 15 mins by gamma counting; type: ADME, organism-based, CCRF S-180; settings: in vivo, 0.25 h
[21] = test system: Brain; assay: Biodistribution in mouse S180 cells xenografted Kunming mouse brain at 370 kBq/0.1 mL, iv after 120 mins by gamma counting; type: ADME, organism-based, CCRF S-180; settings: in vivo, 2 h
[22] = test system: Nucleic Acid; assay: Ratio of drug level in tumor to muscle in mouse S180 cells xenografted Kunming mouse at 370 kBq/0.1 mL, iv after 30 mins by gamma counting; type: ADME, organism-based, CCRF S-180; settings: in vivo, 0.5 h
[23] = test system: Liver; assay: Biodistribution in mouse S180 cells xenografted Kunming mouse liver at 370 kBq/0.1 mL, iv after 60 mins by gamma counting; type: ADME, organism-based, CCRF S-180; settings: in vivo, 1 h
[24] = test system: Lung; assay: Biodistribution in mouse S180 cells xenografted Kunming mouse lung at 370 kBq/0.1 mL, iv after 60 mins by gamma counting; type: ADME, organism-based, CCRF S-180; settings: in vivo, 1 h
[25] = test system: Spleen; assay: Biodistribution in mouse S180 cells xenografted Kunming mouse spleen at 370 kBq/0.1 mL, iv after 60 mins by gamma counting; type: ADME, organism-based, CCRF S-180; settings: in vivo, 1 h

| Drug uptake [3] [%] | Ratio [4] | Ratio [5] | Ratio [6] | Drug uptake [7] [% ID/g] | Ratio [8] | Drug uptake [9] [% ID/g] | Drug uptake [11] [% ID/g] | Ratio [12] | Drug uptake [14] [% ID/g] | Drug uptake [15] [% ID/g] | Drug uptake [17] [% ID/g] | Drug uptake [18] [% ID/g] | Drug uptake [19] [% ID/g] | Drug uptake [20] [% ID/g] | Drug uptake [21] [% ID/g] | Ratio [22] | Drug uptake [23] [% ID/g] | Drug uptake [24] [% ID/g] | Drug uptake [25] [% ID/g] | SMILES | further results |
| --- | --- | --- | --- | --- | --- | --- | --- | --- | --- | --- | --- | --- | --- | --- | --- | --- | --- | --- | --- | --- | --- |
| 9 | 1.53 | 1.09 | 0.59 | 2.95 | 0.39 | 7.93 | 4.83 | 1.28 | 2.7 | 3.63 | 4.37 | 4.66 | 2.31 | 3.57 | 1.79 | 1.81 | 2.45 | 2.78 | 2.82 | Cc1cc(NCC[18F])n2ncc(C#N)c2n1 | Drug uptake [1]: Active; Drug uptake [2]: Not Active; fold change (FC) [10]: 2; Drug uptake [13]: Active; Drug uptake [16]: Active |
| 9 | 8.69 | 0.77 | 5.87 | 0.74 | 0.43 | 17.7 | 5.23 | 1.57 | 0.16 | 0.45 | 1.99 | 4.54 | 0.47 | 2.78 | 0.04 | 1.4 | 4.07 | 0.56 | 0.53 | Cc1cc(NCCNC(=O)c2ccc([N+](=O)[O-])cc2[18F])n2ncc(C#N)c2n1 | Drug uptake [10]: < 7% |
